Assay results from patent publication US8008294B2 (AstraZeneca AB, priority 2006, dated 2011).
Where a name gives a salt, the structure may show the parent alone.

Columns and labels:
Format in all cases: physicochemical
[1] = Photo stability of bulk substance (Suntest CPS+ cabinet)
Method: The exposure was 250 Wh/m^2 and 1.2 million lux hours over 29 hours.

[2] = Solution stability (isotonic solution, HPLC analysis); conditions: 0.1 mg/ml isotonic solution, ascorbic acid 0.5% (w/v), pH 2 and 4, stored four weeks at 4 to 8° C.; citrate salt
[3] = Hygroscopicity by Dynamic Vapour Sorption Analysis (DVS); conditions: 25° C., citrate salt
Method: Dynamic Vapour Sorption Analysis (DVS)
The studies were undertaken using Dynamic Vapour Sorption Appararatus (DVS, Surface Measurement Systems, London UK). The apparatus consists of Cahn micobalance housed inside a temperature-controled cabinet. All experiments were performed at 25° C. The DVS was used to characterize the moisture uptake (w/w %) at different relative humidities (RH). Samples (5-10 mg) were weighed directly into the DSV sample cup and exposed to different relative humidities.

[4] = 29 hours control sample (stored in the dark)
[5] = exposure time 29 hours, 250 Wh/m^2 and 1.2 million lux hours

| SMILES | photo stability of bulk substance ([1]; 29 hours control sample (stored in the dark), citrate salt) | photo stability of bulk substance ([1]; exposure time 0 hours, citrate salt) | photo stability of bulk substance ([1]; exposure time 29 hours, 250 Wh/m^2 and 1.2 million lux hours, citrate salt) | degradation in solution [2] | moisture uptake ([3]; 40% relative humidity) [w/w %] | moisture uptake ([3]; 60% relative humidity) [w/w %] | moisture uptake ([3]; 80% relative humidity) [w/w %] | photo stability of bulk substance [1, 4] | photo stability of bulk substance ([1]; exposure time 0 hours) | photo stability of bulk substance [1, 5] |
| --- | --- | --- | --- | --- | --- | --- | --- | --- | --- | --- |
| N#Cc1ccc2[nH]c(O)c(-c3ccc(CN4CCOCC4)cn3)c2c1 [Citrate, 2-Hydroxy-3-[5-(morpholin-4-ylmethyl)pyridin-2-yl]1H-indole-5-carbonitrile citrate salt] | 99.1 | 99.0 | 98.1 | no degradation products | 7.1 | 7.6 | 8.0 | – | – | – |
| N#Cc1ccc2[nH]c(O)c(-c3ccc(CN4CCOCC4)cn3)c2c1 [Free base, 2-Hydroxy-3-[5-(morpholin-4-ylmethyl)pyridin-2-yl]1H-indole-5-carbonitrile] | – | – | – | – | – | – | – | 96.1 | 96.6 | 83.8 |
| N#Cc1ccc2[nH]c(O)c(-c3ccc(CN4CCOCC4)cn3)c2c1 [HCl] | – | – | – | – | – | – | – | 97.7 | 97.5 | 89.0 |
